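A five-concentration, 48-hour dose response in 96-well plates underlies each endpoint, interpolated linearly between surrounding concentrations. Here, GI50 denotes the concentration required for 50% inhibition of growth. At the TGI there is no net growth.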
Columns and labels:
Assay in all cases: DTP human tumour cell line panel, 48 h; in the data active means GI50 below about 0.43 µM; inactive means the rest
MDA-N = test system: MDA-N
CAKI-1 renal = test system: CAKI-1 renal
U251 CNS = test system: U251 CNS
A498 renal = test system: A498 renal
OVCAR-3 ovarian = test system: OVCAR-3 ovarian
RXF 393 renal = test system: RXF 393 renal
SN12C renal = test system: SN12C renal
COLO 205 colon = test system: COLO 205 colon
UACC-62 melanoma = test system: UACC-62 melanoma
UO-31 renal = test system: UO-31 renal
UACC-257 melanoma = test system: UACC-257 melanoma
SF-268 CNS = test system: SF-268 CNS
SNB-75 CNS = test system: SNB-75 CNS
HT29 colon = test system: HT29 colon
NCI-H460 lung = test system: NCI-H460 lung
T-47D breast = test system: T-47D breast
OVCAR-4 ovarian = test system: OVCAR-4 ovarian
HOP-62 NSCLC = test system: HOP-62 NSCLC
SF-539 CNS = test system: SF-539 CNS
MOLT-4 leukemia = test system: MOLT-4 leukemia
HCT-15 colon = test system: HCT-15 colon
CCRF-CEM leukemia = test system: CCRF-CEM leukemia
ACHN renal = test system: ACHN renal
RPMI-8226 leukemia = test system: RPMI-8226 leukemia
SW-620 colon = test system: SW-620 colon
SK-OV-3 ovarian = test system: SK-OV-3 ovarian
A549 NSCLC = test system: A549 NSCLC
PC-3 prostate = test system: PC-3 prostate
MALME-3M melanoma = test system: MALME-3M melanoma
NCI/ADR-RES ovarian = test system: NCI/ADR-RES ovarian
M14 melanoma = test system: M14 melanoma
MCF7 breast = test system: MCF7 breast
NCI-H226 lung = test system: NCI-H226 lung
SF-295 CNS = test system: SF-295 CNS
SR leukemia = test system: SR leukemia
TK-10 renal = test system: TK-10 renal
SK-MEL-2 melanoma = test system: SK-MEL-2 melanoma
NCI-H23 lung = test system: NCI-H23 lung
SK-MEL-5 melanoma = test system: SK-MEL-5 melanoma
HCC-2998 colon = test system: HCC-2998 colon
K-562 leukemia = test system: K-562 leukemia
BT-549 breast = test system: BT-549 breast
OVCAR-8 ovarian = test system: OVCAR-8 ovarian
IGROV1 ovarian = test system: IGROV1 ovarian
MDA-MB-231 breast = test system: MDA-MB-231 breast
HCT-116 colon = test system: HCT-116 colon
OVCAR-5 ovarian = test system: OVCAR-5 ovarian
HS 578T breast = test system: HS 578T breast
MDA-MB-435 = test system: MDA-MB-435
DU-145 prostate = test system: DU-145 prostate
EKVX NSCLC = test system: EKVX NSCLC
786-0 renal = test system: 786-0 renal
SNB-19 CNS = test system: SNB-19 CNS
HOP-92 NSCLC = test system: HOP-92 NSCLC
SK-MEL-28 melanoma = test system: SK-MEL-28 melanoma
KM12 colon = test system: KM12 colon
LOX IMVI melanoma = test system: LOX IMVI melanoma

CC(=O)OCC(OC(C)=O)C(OC(C)=O)C(/C=N/N(C(C)=O)S(=O)(=O)c1ccc(/C=C2\NC(=O)NC2=O)cc1)OC(C)=O (stereo unspecified)
> 100 µM: TGI (MDA-N) | TGI (CAKI-1 renal) | TGI (U251 CNS) | TGI (A498 renal) | TGI (OVCAR-3 ovarian) | TGI (RXF 393 renal) | TGI (SN12C renal) | TGI (COLO 205 colon) | TGI (UACC-62 melanoma) | TGI (UO-31 renal) | TGI (UACC-257 melanoma) | TGI (SF-268 CNS) | TGI (SNB-75 CNS) | TGI (HT29 colon) | TGI (NCI-H460 lung) | TGI (T-47D breast) | TGI (OVCAR-4 ovarian) | TGI (HOP-62 NSCLC) | TGI (SF-539 CNS) | TGI (MOLT-4 leukemia) | TGI (HCT-15 colon) | TGI (CCRF-CEM leukemia) | TGI (ACHN renal) | TGI (RPMI-8226 leukemia) | TGI (SW-620 colon) | TGI (SK-OV-3 ovarian) | TGI (A549 NSCLC) | TGI (PC-3 prostate) | TGI (MALME-3M melanoma) | TGI (NCI/ADR-RES ovarian) | TGI (M14 melanoma) | TGI (MCF7 breast) | TGI (NCI-H226 lung) | TGI (SF-295 CNS) | TGI (SR leukemia) | TGI (TK-10 renal) | TGI (SK-MEL-2 melanoma) | TGI (NCI-H23 lung) | TGI (SK-MEL-5 melanoma) | TGI (HCC-2998 colon) | TGI (K-562 leukemia) | TGI (BT-549 breast) | TGI (OVCAR-8 ovarian) | TGI (IGROV1 ovarian) | TGI (MDA-MB-231 breast) | TGI (HCT-116 colon) | TGI (OVCAR-5 ovarian) | TGI (HS 578T breast) | TGI (MDA-MB-435) | TGI (DU-145 prostate) | TGI (EKVX NSCLC) | TGI (786-0 renal) | TGI (SNB-19 CNS)
inactive: GI50 (RPMI-8226 leukemia) 0.583 µM

CC(C#N)Nc1ccc(Oc2ccc(C(C)(C)c3ccc(Oc4ccc(NC(C)C#N)cc4)cc3)cc2)cc1 (stereo unspecified)
> 100 µM: TGI (MDA-N) | TGI (CAKI-1 renal) | TGI (U251 CNS) | TGI (A498 renal) | TGI (HOP-92 NSCLC) | TGI (SK-MEL-28 melanoma) | TGI (OVCAR-3 ovarian) | TGI (RXF 393 renal) | TGI (SN12C renal) | TGI (KM12 colon) | TGI (COLO 205 colon) | TGI (UACC-62 melanoma) | TGI (UO-31 renal) | TGI (UACC-257 melanoma) | TGI (SF-268 CNS) | TGI (SNB-75 CNS) | TGI (HT29 colon) | TGI (NCI-H460 lung) | TGI (T-47D breast) | TGI (OVCAR-4 ovarian) | TGI (SF-539 CNS) | TGI (MOLT-4 leukemia) | TGI (HCT-15 colon) | TGI (LOX IMVI melanoma) | TGI (ACHN renal) | TGI (SW-620 colon) | TGI (SK-OV-3 ovarian) | TGI (A549 NSCLC) | TGI (PC-3 prostate) | TGI (MALME-3M melanoma) | TGI (NCI/ADR-RES ovarian) | TGI (M14 melanoma) | TGI (MCF7 breast) | TGI (NCI-H226 lung) | TGI (SF-295 CNS) | TGI (TK-10 renal) | TGI (SK-MEL-2 melanoma) | TGI (NCI-H23 lung) | TGI (SK-MEL-5 melanoma) | TGI (HCC-2998 colon) | TGI (K-562 leukemia) | TGI (BT-549 breast) | TGI (OVCAR-8 ovarian) | TGI (IGROV1 ovarian) | TGI (MDA-MB-231 breast) | TGI (HCT-116 colon) | TGI (OVCAR-5 ovarian) | TGI (MDA-MB-435) | TGI (EKVX NSCLC) | TGI (786-0 renal) | TGI (SNB-19 CNS)
94 µM: TGI (HS 578T breast)

— PubChem BioAssay (NCI)
